Laboratory results: paper PMC12615753, “Glutathione as a taste modulator: molecular mechanisms of interaction with umami and sweet taste receptors” (Food Chemistry: Molecular Sciences, 2025)

Biological target: T1, hTAS1R1 H71A/rTAS1R3 (UniProt Q7RTX1+Q923K1, H71A)
T1 construct: The cDNA coding region of rTAS1R3 was synthesized with optimized-codon usage for human expression; expressed in transfected cells; host or cells: HEK293T/17
T1 sequence (Q7RTX1 21-841 H71A): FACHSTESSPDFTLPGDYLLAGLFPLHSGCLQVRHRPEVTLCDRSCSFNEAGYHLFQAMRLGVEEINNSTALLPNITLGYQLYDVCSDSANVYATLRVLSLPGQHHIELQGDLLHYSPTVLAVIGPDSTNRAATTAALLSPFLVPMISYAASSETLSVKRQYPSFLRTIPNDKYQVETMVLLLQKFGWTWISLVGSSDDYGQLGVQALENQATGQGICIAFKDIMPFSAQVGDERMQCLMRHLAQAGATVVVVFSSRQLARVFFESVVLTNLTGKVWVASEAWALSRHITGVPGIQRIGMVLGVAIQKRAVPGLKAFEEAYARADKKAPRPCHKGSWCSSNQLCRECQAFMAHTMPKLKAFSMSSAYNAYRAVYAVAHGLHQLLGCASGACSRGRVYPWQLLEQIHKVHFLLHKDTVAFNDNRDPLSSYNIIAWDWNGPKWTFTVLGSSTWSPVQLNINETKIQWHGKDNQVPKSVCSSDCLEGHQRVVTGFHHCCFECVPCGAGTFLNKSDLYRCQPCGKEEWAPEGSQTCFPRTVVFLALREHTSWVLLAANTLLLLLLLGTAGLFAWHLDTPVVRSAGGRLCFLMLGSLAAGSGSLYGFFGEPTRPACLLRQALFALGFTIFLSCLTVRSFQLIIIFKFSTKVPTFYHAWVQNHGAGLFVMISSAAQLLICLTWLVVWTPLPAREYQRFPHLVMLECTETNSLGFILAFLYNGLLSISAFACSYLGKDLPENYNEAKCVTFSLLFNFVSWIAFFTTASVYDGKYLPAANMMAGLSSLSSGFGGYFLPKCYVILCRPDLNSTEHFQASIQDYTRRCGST
T1 sequence (Q923K1 21-858): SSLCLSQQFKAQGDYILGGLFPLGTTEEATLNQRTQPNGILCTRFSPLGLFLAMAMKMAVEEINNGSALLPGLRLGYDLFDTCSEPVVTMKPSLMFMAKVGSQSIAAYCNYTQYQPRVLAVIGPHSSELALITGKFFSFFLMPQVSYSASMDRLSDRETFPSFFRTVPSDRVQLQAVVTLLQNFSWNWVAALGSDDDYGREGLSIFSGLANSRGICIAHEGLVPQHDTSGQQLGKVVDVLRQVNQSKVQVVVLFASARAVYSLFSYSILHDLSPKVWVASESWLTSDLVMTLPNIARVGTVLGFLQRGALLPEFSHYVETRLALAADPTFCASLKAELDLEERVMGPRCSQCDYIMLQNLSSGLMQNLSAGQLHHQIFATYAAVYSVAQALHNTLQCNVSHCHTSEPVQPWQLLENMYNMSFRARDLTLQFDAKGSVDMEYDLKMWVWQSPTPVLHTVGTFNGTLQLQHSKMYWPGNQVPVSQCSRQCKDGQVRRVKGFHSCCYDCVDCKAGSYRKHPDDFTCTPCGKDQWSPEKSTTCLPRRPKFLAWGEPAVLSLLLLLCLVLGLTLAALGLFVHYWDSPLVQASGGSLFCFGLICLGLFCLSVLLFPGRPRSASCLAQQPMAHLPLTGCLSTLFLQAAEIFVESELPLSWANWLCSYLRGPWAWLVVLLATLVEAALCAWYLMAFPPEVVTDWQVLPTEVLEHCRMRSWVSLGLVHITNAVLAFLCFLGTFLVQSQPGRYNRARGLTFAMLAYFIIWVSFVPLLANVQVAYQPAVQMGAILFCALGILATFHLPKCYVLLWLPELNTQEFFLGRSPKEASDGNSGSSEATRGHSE
Assay: Calcium assay, hTAS1R1 mutant co-expressed with rTAS1R3
Type: cell-based, human, rat

response to the agonist alone, vs WT (H71A)	Structure (SMILES)	EC50	effect of the added compound (1 mM) on the response to L-Glu (H71A)	Max ∆F/F0 (H71A, GSH)	R1 = mutant EC50/WT EC50 (H71A, GSH)
	N[C@@H](CCC(=O)N[C@@H](CS)C(=O)NCC(=O)O)C(=O)O [GSH, γ-L-glutamyl-L-cysteinyl-glycine]	2030 ± 416 µM	did not affect	0.44 ± 0.03	0.8
strongly affected	CCCC(CCC)NC(=O)c1ccc2c(c1)OCO2 [S807, N-(heptan-4-yl)benzo[d][1,3]dioxole-5-carboxamide, reference compound]				
